Among the data in patent US9375013B2, “Herbicidal composition” (ISHIHARA SANGYO KAISHA, LTD., priority 2013, dated 2016) are inhibition values, retold here.

Holding throughout (format): in vivo
The test system of assay [1] is common ragweed (Ambrosia artemisiifolia L.). Nature of the assay: Test Example 11: pot soil treatment, growth inhibition of common ragweed. The settings on record: dose 10 g/ha, 21st day after treatment, read-out: Growth inhibition rate (%) of common ragweed, Measured value. The source says: (§1) On the 14th day after treatment, the state of growth of the summergrass was visually observed to determine the growth inhibition rate in accordance with the following evaluation standard. The growth inhibition rate (%) (measured value) and the growth inhibition rate (%) (calculated value) calculated by the Colby's formula are shown in Table 1. Growth inhibition rate (%)=0 (equivalent to the non-treated area) to 100 (complete kill) Upland field soil was put into a 1/160,000 ha pot, and seeds of common ragweed (Ambrosia artemisiifolia L.) were sown. On the next day, predetermined amounts of flazasulfuron and imazapic were diluted with water (in an amount corresponding to 300 L/ha), and applied for soil treatment by a small sprayer. On the 21st day after treatment, the state of growth of the common ragweed was visually observed to determine the growth inhibition rate. The growth inhibition rate (%) (measured value) and the growth inhibition rate (%) calculated in the same manner as in Test Example 1 are shown in Table 11.

The test system of assay [2] is barnyardgrass (Echinochloa crus-galli L). Nature of the assay: Test Example 9: pot soil treatment, growth inhibition of barnyardgrass. The conditions noted are these: dose 30 g/ha, 21st day after treatment, read-out: Growth inhibition rate (%) of barnyardgrass, Measured value.
Description: as §1, with “barnyardgrass (Echinochloa crus-galli L)” for “common ragweed (Ambrosia artemisiifolia L.)”, “hexazinone” for “imazapic”, “barnyardgrass” for “common ragweed”, “9.” for “11.”

Assay [3] deals with rostrate sesbania(Sesbania rostrata Bremek. & Oberm.). Description: Test Example 7: pot soil treatment, growth inhibition of rostrate sesbania. The conditions noted are these: 22nd day after treatment, read-out: Growth inhibition rate (%) of rostrate sesbania, Measured value.
Assay [4] concerns common lespedeza (Lespedeza striata (Thunb.) Hook. et Arn.). Nature of the assay: Test Example 12: pot soil treatment, growth inhibition of common lespedeza. The conditions noted are these: Kummerowia striata, dose 30 g/ha, 21st day after treatment, read-out: Growth inhibition rate (%) of common lespedeza, Measured value.
Description: as §1, with “lespedeza (Lespedeza striata (Thunb.) Hook. et Arn.)” for “ragweed (Ambrosia artemisiifolia L.)”, “lespedeza” for “ragweed”, “12.” for “11.”

Assay [5] deals with persian speedwell (Veronica persica Poir.). Nature of the assay: Test Example 8: pot soil treatment, growth inhibition of persian speedwell. The conditions noted are these: 21st day after treatment, read-out: Growth inhibition rate (%) of persian speedwell, Measured value.
Assay [6] concerns ivy-leaved morningglory (Ipomoea hederacea (L.) Jacq.). Description: Test Example 2: pot soil treatment, growth inhibition of ivy-leaved morningglory. The settings on record: 22nd day after treatment, read-out: Growth inhibition rate (%) of ivy-leaved morningglory, Measured value.
Description: as §1, with “ivy-leaved morningglory (Ipomoea hederacea (L.) Jacq.)” for “common ragweed (Ambrosia artemisiifolia L.)”, “hexazinone” for “imazapic”, “22nd” for “21st”, “ivy-leaved morningglory” for “common ragweed”, “2.” for “11.”

The subject of assay [7] is summergrass (Digitaria ciliaris (Retz.) Koeler). Description: Test Example 1: pot soil treatment, growth inhibition of summergrass. The settings on record: dose 10 g/ha, 14th day after treatment, read-out: Growth inhibition rate (%) of summergrass, Measured value. The procedure:
Upland field soil was put into a 1/160,000 ha pot, and seeds of summergrass (Digitaria ciliaris (Retz.) Koeler) were sown. On the next day, predetermined amounts of flazasulfuron and imazapic were diluted with water (in an amount corresponding to 300 L/ha), and applied for soil treatment by a small sprayer. On the 14th day after treatment, the state of growth of the summergrass was visually observed to determine the growth inhibition rate in accordance with the following evaluation standard. The growth inhibition rate (%) (measured value) and the growth inhibition rate (%) (calculated value) calculated by the Colby's formula are shown in Table 1. Growth inhibition rate (%)=0 (equivalent to the non-treated area) to 100 (complete kill)

The test system of assay [8] is shattercane (Sorghum bicolor (L.) Moench.). Description: Test Example 6: pot soil treatment, growth inhibition of shattercane. The settings on record: dose 30 g/ha, 22nd day after treatment, read-out: Growth inhibition rate (%) of shattercane, Measured value. From the text: On the 14th day after treatment, the state of growth of the summergrass was visually observed to determine the growth inhibition rate in accordance with the following evaluation standard. The growth inhibition rate (%) (measured value) and the growth inhibition rate (%) (calculated value) calculated by the Colby's formula are shown in Table 1. Growth inhibition rate (%)=0 (equivalent to the non-treated area) to 100 (complete kill)
Upland field soil was put into a 1/160,000 ha pot, and seeds of shattercane (Sorghum bicolor (L.) Moench.) were sown. On the next day, predetermined amounts of flazasulfuron and hexazinone were diluted with water (in an amount corresponding to 300 L/ha), and applied for soil treatment by a small sprayer.
On the 22nd day after treatment, the state of growth of the shattercane was visually observed to determine the growth inhibition rate. The growth inhibition rate (%) (measured value) and the growth inhibition rate (%) calculated in the same manner as in Test Example 1 are shown in Table 6.

As a reminder, the inhibition is the percentage by which the read-out fell short of the control. For `COc1cc(OC)nc(NC(=O)NS(=O)(=O)c2ncccc2C(F)(F)F)n1` [Flazasulfuron, flazasulfuron], the inhibition at 10 g/ha in assay [1] worked out at 80%; in assay [6] (dose 10 g/ha), 0%; in assay [7], 15%. Besides, the inhibition at 30 g/ha in assay [2] was 90%; in assay [4] it was 90%; in assay [6] (dose 30 g/ha) it was 0%; in assay [8], 60%. Besides, the inhibition at 50 g/ha in assay [3] came to 35%; in assay [5], 20%; in assay [6] (dose 50 g/ha), 40%.
